Reference: patent publication US12486253B2, “Therapeutics for the degradation of mutant BRAF” (C4 THERAPEUTICS, INC., priority 2021, dated 2025)

Test system: A375 tumors
Assay: In vivo efficacy in A375 xenograft tumors
Design: species or system BALB/c nude mice
Conditions: mice
Experimental: The efficacy study was conducted in female BALB/c nude mice bearing A375 tumors. Female BALB/c nude mice were inoculated subcutaneously in the right flank with A375 tumor cells (5×10^6) in 0.2 mL of PBS supplemented with Matrigel (at a 1:1 ratio) for tumor development. Tumor volume was measured twice weekly in two dimensions using calipers, and volume (mm^3) was calculated using the formula: V=0.5 a×b^2 where a and b are the long and short diameters of the tumor in mm, respectively. Once the tumors reached an average tumor volume of 246 mm^3 (16 days after implantation), the animals were divided randomly into groups of 6, stratified to result in about equal average tumor sizes in each treatment group and treatment began on Day 0.
All agents were administered to mice bearing A375 tumors orally (PO), daily (QD; encorafenib), twice a day (BID) or three times a day (TID) for Compound 157, for 21 or 35 days. encorafenib was dosed at 35 mg/kg and Compound 157 at 0.1, 0.3, 1, 3 or 10 mg/kg twice a day or 2 mg/kg three times a day. Compound 157 was formulated in 20% PEG400+80% (25% SBECD). Body weight and MTV were measured on a 2× weekly schedule and reported as Mean±SEM.

CCN(C)S(=O)(=O)Nc1ccc(F)c(Oc2ccc3ncn([C@H]4COC5(CCN(C(=O)CC6(O)CCN(c7cc8c(cc7F)c(N7CCC(=O)NC7=O)nn8C)CC6)CC5)C4)c(=O)c3c2)c1C#N [Compound 157, (3R)-3-[6-[2-cyano-3-[[ethyl(methyl)sulfamoyl]amino]-6-fluorophenoxy]-4-oxoquinazolin-3-yl]-8-[2-[1-[3-(2,4-dioxo-1,3-diazinan-1-yl)-5-fluoro-1-methylindazol-6-yl]-4-hydroxypiperidin-4-yl]acetyl]-1-oxa-8-azaspiro[4.5]decane]
Tumor growth compared to vehicle-treated tumors (1 mg/kg PO BID): potent tumor growth inhibition | Tumor growth compared to vehicle-treated tumors (2 mg/kg PO TID): potent tumor growth inhibition | Tumor growth compared to vehicle-treated tumors (3 mg/kg PO BID): potent tumor growth inhibition | Tumor growth compared to vehicle-treated tumors (10 mg/kg PO BID): robust tumor growth regression
